Test results taken from article PMC9216299, “Quercetin and luteolin are single-digit micromolar inhibitors of the SARS-CoV-2 RNA-dependent RNA polymerase” (Scientific Reports, 2022).
≈ marks a conversion by molar mass, not a printed value. Like-named read-outs stand apart in the source and are kept apart here.

What was measured:
SARS-CoV-2 RdRp = SARS-CoV-2 RdRp (Severe acute respiratory syndrome coronavirus 2, UniProt P0DTD1); assay: biochemical; details: for inhibition at 25 µM / inhibition at 100 µM: SARS-CoV-2 RdRp; for inhibition at 25 µM: compound at 25 µM, read-out: % inhib 25 µM; for inhibition at 100 µM: compound at 100 µM, read-out: % inhib 100 µM
[1] = 24 h, pH 7.4
in vitro = details: mouse, microsomes, pH 7.4
3CL^pro = details: viral protease 3CLpro, cited from earlier work; for IC50: in vitro
[2] = In vitro plasma stability; details: for stability in blood plasma (in words): mouse plasma, measured time span 120 min; for half-life at 2 µM: mouse, plasma
M^pro = details: cited from earlier work
NTPase/helicase = details: cited from earlier work
[3] = Aqueous kinetic solubility in PBS pH 7.4; details: PBS neutral buffer pH 7.4, 25 °C, 24 h, target 250 µM, 2.5% DMSO

SMILES | IC50 (SARS-CoV-2 RdRp) [µM] | inhibition at 25 µM (SARS-CoV-2 RdRp) [%] | inhibition at 100 µM (SARS-CoV-2 RdRp) [%] | kinetic solubility (Sk) [1] [µM] | half-life at 4.6 µM (in vitro) [h] | IC50 (3CL^pro) [µM] | stability in blood plasma (in words) [2] | half-life at 2 µM [2] [h] | activity against SARS-CoV Mpro (M^pro) | activity against SARS-CoV NTPase/helicase (NTPase/helicase) | Ki (3CL^pro) [µM] | kinetic solubility (Sk) [3] [µM]
O=c1cc(-c2ccc(O)c(O)c2)oc2cc(O)cc(O)c12 [Luteolin, luteolin] | 4.6 ± 0.3 | 89 | 100 | 21 ± 4 (≈ 6.01 µg/mL) | > 1 | 20 | stable in the measured time span | > 2 | – | – | – | –
O=c1c(O)c(-c2ccc(O)c(O)c2)oc2cc(O)cc(O)c12 [Quercetin, quercetin] | – | 81 | 100 | – | > 1 | 24 | poorly stable | 0.117 ± 0.0333 | active | active | ~7 | 16 ± 5 (≈ 4.84 µg/mL)
